Data on eleven compounds can be found in US20200069691A1, “HETEROCYCLIC COMPOUNDS AS HIV PROTEASE INHIBITORS” (Merck Sharp & Dohme Corp., priority 2016, published 2020).

Structures are written as SMILES.

The target of the assay is T1, wild-type HIV-1 protease (Human immunodeficiency virus type 1 group M subtype B, UniProt P04585).
T1 construct: Escherichia coli expressed wild-type HIV-1 protease protein
Description: Assay for Inhibition of Microbial Expressed HIV Protease (peptide substrate cleavage, LC-MS/MS readout). The class given is biochemical. The settings on record: E. coli expressed wild-type HIV-1 protease, mean of at least two independent experiments, read-out: HIV Pr Enzyme HIV1 PR IC50. In a few lines: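 E. coli-expressed wild-type HIV-1 protease ([…]) was preincubated with inhibitor 30 min at room temperature in pH 5.5 acetate buffer (100 mM NaCl, 0.1% BSA). Then 400 μM octapeptide substrate was added and reacted 1 h at 30 °C; inhibition came from LC-MS/MS product peak areas, mean of ≥2 experiments.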

In the case of `N=C1NC(c2ccc(F)cc2)(c2cccc(Br)c2)C(=O)N1Cc1cccc(C(=O)N2Cc3ccccc3C2)c1` (centres unmarked) [Compound 289, 5-(3-bromophenyl)-3-[3-(1,3-dihydro-2H-isoindol-2-ylcarbonyl)benzyl]-5-(4-fluorophenyl)-2-iminoimidazolidin-4-one], the IC50 was 36.1 nM.
The value for `Cc1ncc2c(n1)CN(C(=O)c1cccc(CN3C(=N)NC(c4ccccc4)(c4ccccc4)C3=O)c1)C2` [Compound 290, 2-imino-3-{3-[(2-methyl-5,7-dihydro-6H-pyrrolo[3,4-d]pyrimidin-6-yl)carbonyl]benzyl}-5,5-diphenylimidazolidin-4-one] was 36.3 nM; that for `N=C1NC(c2ccccc2)(c2ccccc2)C(=O)N1Cc1cccc(C(=O)N2CCn3c(nnc3C(F)(F)F)C2)c1` [Compound 291, 2-imino-5,5-diphenyl-3-(3-{[3-(trifluoromethyl)-5,6-dihydro[1,2,4]triazolo[4,3-a]pyrazin-7(8H)-yl]carbonyl}benzyl) imidazolidin-4-one] was 37.9 nM.
The same measure for `N#Cc1cccc(-c2cccc(C3(c4ccc(F)cc4)NC(=N)N(Cc4cccc(C(=O)N5Cc6ccccc6C5)c4)C3=O)c2)c1` (centres unmarked) [Compound 292, 3′-{1-[3-(1,3-dihydro-2H-isoindol-2-ylcarbonyl)benzyl]-4-(4-fluorophenyl)-2-imino-5-oxoimidazolidin-4-yl}biphenyl-3-carbonitrile]: 39 nM.
The same measure for `CC(C)NC(=O)N1CCN(C(=O)c2cc(F)cc(CN3C(=N)NC(c4ccccc4)(c4ccccc4)C3=O)c2)CC1` [Compound 293, 4-({3-fluoro-5-[(2-imino-5-oxo-4,4-diphenylimidazolidin-1-yl)methyl]phenyl}carbonyl)-N-(1-methylethyl) piperazine-1-carboxamide]: 39.2 nM.
As to `N=C1NC(c2ccc(F)cc2)(c2cccc(C(N)=O)c2)C(=O)N1Cc1cccc(C(=O)N2Cc3ccccc3C2)c1` (centres unmarked) [Compound 294, 3-{1-[3-(1,3-dihydro-2H-isoindol-2-ylcarbonyl)benzyl]-4-(4-fluorophenyl)-2-imino-5-oxoimidazolidin-4-yl}benzamide], the IC50 turned out to be 39.8 nM.
The value for `N=C1NC(c2ccccc2)(c2ccccc2)C(=O)N1Cc1cccc(C(=O)N2CCc3nccnc3C2)c1` [Compound 295, 3-[3-(7,8-dihydropyrido[3,4-b]pyrazin-6(5H)-ylcarbonyl)benzyl]-2-imino-5,5-diphenylimidazolidin-4-one] was 40.1 nM.
With `N=C1NC(c2ccccc2)(c2ccccc2)C(=O)N1Cc1cc(F)cc(C(=O)N2Cc3ccccc3C2)c1` [Compound 296, 3-[3-(1,3-dihydro-2H-isoindol-2-ylcarbonyl)-5-fluorobenzyl]-2-imino-5,5-diphenylimidazolidin-4-one], the IC50 was found to be 40.3 nM.
As to `C=Cc1c(C(F)(F)F)nc2n1CCN(C(=O)c1cccc(CN3C(=N)NC(c4ccccc4)(c4ccccc4)C3=O)c1)C2` [Compound 297, 3-(3-{[3-ethenyl-2-(trifluoromethyl)-5,6-dihydroimidazo [1,2-a]pyrazin-7(8H)-yl]carbonyl}benzyl)-2-imino-5,5-diphenylimidazolidin-4-one], the concentration for half-maximal inhibition (IC50) was found to be 43.5 nM.
Regarding `COC(=O)N1CCN(C(=O)c2cc(F)cc(CN3C(=N)NC(c4ccccc4)(c4ccccc4)C3=O)c2)CC1` [Compound 298, methyl 4-({3-fluoro-5-[(2-imino-5-oxo-4,4-diphenylimidazolidin-1-yl)methyl]phenyl}carbonyl) piperazine-1-carboxylate], the concentration for half-maximal inhibition (IC50) came to 43.5 nM.
For `CN(C)C(=O)C1c2ccccc2CN1C(=O)c1cccc(CN2C(=N)NC(c3ccccc3)(c3ccccc3)C2=O)c1` (centres unmarked) [Compound 299, 2-({3-[(2-imino-5-oxo-4,4-diphenylimidazolidin-1-yl)methyl]phenyl}carbonyl)-N,N-dimethyl-2,3-dihydro-1H-isoindole-1-carboxamide], the IC50 came out at 43.9 nM.
